In ChEMBL document CHEMBL3885861, “Open TG-GATES”:

Organism: Rattus norvegicus
Experiment: Open TG-GATES - Regimen: Single
Assay type: toxicity, organism-based, Sprague-Dawley
Design: regimen Single, gender Male, age 6 weeks
Conditions: in vivo, po, 25 mg/kg, route gavage, dose level Low; for APTT / Bas / Eos / Fbg / Hb / Ht / Lym / MCH / MCHC / MCV / Mono / Neu / PT / Plat / RBC / Ret / WBC: tissue Blood; for KIDNEY_L / KIDNEY_R / KIDNEY_TOTAL: tissue Kidney; for LIVER: tissue Liver; for ALP / ALT / AST / BUN / CRE / DBIL / GLC / K / Na / PL / RALB / TBIL / TC / TG / TP / gamma-GTP: tissue Plasma

CN1C(=O)CN=C(c2ccccc2)c2cc(Cl)ccc21 [DIAZEPAM]
TERMINAL_BW (3 h): 218.9 g | APTT (3 h): 16.3 s | Bas (3 h): 0% | Eos (3 h): 1.2% | Fbg (3 h): 227 mg/dL | Hb (3 h): 13.9 g/dL | Ht (3 h): 41.8% | Lym (3 h): 76.6% | MCH (3 h): 21.8 pg | MCHC (3 h): 33.2% | MCV (3 h): 65.8 fL | Mono (3 h): 7.8% | Neu (3 h): 14.8% | PT (3 h): 12.4 s | Plat (3 h): 98.7 x10_4/uL | RBC (3 h): 636.6 x10_4/ul | Ret (3 h): 8.7% | WBC (3 h): 93.5 x10_2/uL | KIDNEY_L (3 h): 1 g | KIDNEY_R (3 h): 1 g | KIDNEY_TOTAL (3 h): 1.9 g | LIVER (3 h): 10.3 g | ALP (3 h): 763.4 IU/L | ALT (3 h): 30 IU/L | AST (3 h): 57.8 IU/L | BUN (3 h): 13.2 mg/dL | CRE (3 h): 0.5 mg/dL | DBIL (3 h): 0.018 mg/dL | GLC (3 h): 195.4 mg/dL | K (3 h): 5.3 meq/L | Na (3 h): 139 meq/L | PL (3 h): 150.2 mg/dL | RALB (3 h): 3.7 g/dL | TBIL (3 h): 0.4 mg/dL | TC (3 h): 83.2 mg/dL | TG (3 h): 66.2 mg/dL | TP (3 h): 5.5 g/dL | gamma-GTP (3 h): 2 IU/L | TERMINAL_BW (6 h): 216.1 g | APTT (6 h): 16.3 s | Bas (6 h): 0% | Eos (6 h): 0.6% | Fbg (6 h): 217 mg/dL | Hb (6 h): 13.9 g/dL | Ht (6 h): 42% | Lym (6 h): 79.4% | MCH (6 h): 21.6 pg | MCHC (6 h): 33% | MCV (6 h): 65.2 fL | Mono (6 h): 5.6% | Neu (6 h): 14.8% | PT (6 h): 12.1 s | Plat (6 h): 110.2 x10_4/uL | RBC (6 h): 643.4 x10_4/ul | Ret (6 h): 8.1% | WBC (6 h): 117.8 x10_2/uL | KIDNEY_L (6 h): 0.9 g | KIDNEY_R (6 h): 1 g | KIDNEY_TOTAL (6 h): 1.9 g | LIVER (6 h): 9.8 g | ALP (6 h): 989.8 IU/L | ALT (6 h): 30.8 IU/L | AST (6 h): 64.6 IU/L | BUN (6 h): 12 mg/dL | CRE (6 h): 0.5 mg/dL | DBIL (6 h): 0.058 mg/dL | GLC (6 h): 202.2 mg/dL | K (6 h): 5.3 meq/L | Na (6 h): 138.6 meq/L | PL (6 h): 143.4 mg/dL | RALB (6 h): 3.8 g/dL | TBIL (6 h): 0.4 mg/dL | TC (6 h): 77.2 mg/dL | TG (6 h): 67.4 mg/dL | TP (6 h): 5.7 g/dL | gamma-GTP (6 h): 1 IU/L | TERMINAL_BW (9 h): 212.2 g | APTT (9 h): 16.6 s | Bas (9 h): 0% | Eos (9 h): 0.6% | Fbg (9 h): 229.8 mg/dL | Hb (9 h): 13.8 g/dL | Ht (9 h): 41.7% | Lym (9 h): 78.8% | MCH (9 h): 21.6 pg | MCHC (9 h): 33% | MCV (9 h): 65.4 fL | Mono (9 h): 6.2% | Neu (9 h): 14.4% | PT (9 h): 12.2 s | Plat (9 h): 102.9 x10_4/uL | RBC (9 h): 638.2 x10_4/ul | Ret (9 h): 7.5% | WBC (9 h): 107.6 x10_2/uL | KIDNEY_L (9 h): 1 g | KIDNEY_R (9 h): 1 g | KIDNEY_TOTAL (9 h): 2 g | LIVER (9 h): 9.4 g | ALP (9 h): 723.6 IU/L | ALT (9 h): 26 IU/L | AST (9 h): 57.2 IU/L | BUN (9 h): 12.4 mg/dL | CRE (9 h): 0.6 mg/dL | DBIL (9 h): 0.044 mg/dL | GLC (9 h): 212.6 mg/dL | K (9 h): 4.8 meq/L | Na (9 h): 139.6 meq/L | PL (9 h): 142 mg/dL | RALB (9 h): 3.9 g/dL | TBIL (9 h): 0.3 mg/dL | TC (9 h): 83.8 mg/dL | TG (9 h): 44.8 mg/dL | TP (9 h): 5.7 g/dL | gamma-GTP (9 h): 1.6 IU/L | TERMINAL_BW (24 h): 227.7 g | APTT (24 h): 16.3 s | Bas (24 h): 0% | Eos (24 h): 1% | Fbg (24 h): 219.6 mg/dL | Hb (24 h): 13.4 g/dL | Ht (24 h): 40.4% | Lym (24 h): 81% | MCH (24 h): 21.7 pg | MCHC (24 h): 33.1% | MCV (24 h): 65.7 fL | Mono (24 h): 5.6% | Neu (24 h): 12.2% | PT (24 h): 12.2 s | Plat (24 h): 105.2 x10_4/uL | RBC (24 h): 616 x10_4/ul | Ret (24 h): 8.5% | WBC (24 h): 100.5 x10_2/uL | KIDNEY_L (24 h): 1 g | KIDNEY_R (24 h): 1.1 g | KIDNEY_TOTAL (24 h): 2.1 g | LIVER (24 h): 11.2 g | ALP (24 h): 1114.4 IU/L | ALT (24 h): 33.8 IU/L | AST (24 h): 63 IU/L | BUN (24 h): 16.6 mg/dL | CRE (24 h): 0.5 mg/dL | DBIL (24 h): 0.016 mg/dL | GLC (24 h): 185.6 mg/dL | K (24 h): 5.1 meq/L | Na (24 h): 140 meq/L | PL (24 h): 152.8 mg/dL | RALB (24 h): 3.7 g/dL | TBIL (24 h): 0.3 mg/dL | TC (24 h): 82.2 mg/dL | TG (24 h): 108.6 mg/dL | TP (24 h): 5.8 g/dL | gamma-GTP (24 h): 1.2 IU/L
